Source: the supplement of paper PMC13380429

Tests used:
Details in all cases: 72 h
[1] = tested on: Vero E6; test: cell viability relative to DMSO; higher = less toxic
[2] = tested on: HepG2; test: as above
[3] = tested on: Calu-3; test: as above
[4] = tested on: U2OS; test: as above
[5] = tested on: Caco-2; test: as above
[6] = tested on: Vero E6; test: drug sensitivity score (DSS) for viability; higher = more toxic; extreme values may be limits of the assay
[7] = tested on: HepG2; test: as above
[8] = tested on: Calu-3; test: as above
[9] = tested on: U2OS; test: as above
[10] = tested on: Caco-2; test: as above
[11] = tested on: Vero E6; test: relative viability EC50 (midpoint between 100% and the lowest measured viability); higher = less toxic
[12] = tested on: HepG2; test: as above
[13] = tested on: Calu-3; test: as above
[14] = tested on: U2OS; test: as above
[15] = tested on: Caco-2; test: as above

SMILES	cell viability ([1]; 1 nM) [%]	cell viability ([1]; 10 nM) [%]	cell viability ([1]; 100 nM) [%]	cell viability ([1]; 1000 nM) [%]	cell viability ([1]; 10000 nM) [%]	cell viability ([2]; 1 nM) [%]	cell viability ([2]; 10 nM) [%]	cell viability ([2]; 100 nM) [%]	cell viability ([2]; 1000 nM) [%]	cell viability ([2]; 10000 nM) [%]	cell viability ([3]; 1 nM) [%]	cell viability ([3]; 10 nM) [%]	cell viability ([3]; 100 nM) [%]	cell viability ([3]; 1000 nM) [%]	cell viability ([3]; 10000 nM) [%]	cell viability ([4]; 1 nM) [%]	cell viability ([4]; 10 nM) [%]	cell viability ([4]; 100 nM) [%]	cell viability ([4]; 1000 nM) [%]	cell viability ([4]; 10000 nM) [%]	cell viability ([5]; 1 nM) [%]	cell viability ([5]; 10 nM) [%]	cell viability ([5]; 100 nM) [%]	cell viability ([5]; 1000 nM) [%]	cell viability ([5]; 10000 nM) [%]	drug sensitivity score [6]	drug sensitivity score [7]	drug sensitivity score [8]	drug sensitivity score [9]	drug sensitivity score [10]	relative viability EC50 [11] [µM]	relative viability EC50 [12] [µM]	relative viability EC50 [13] [µM]	relative viability EC50 [14] [µM]	relative viability EC50 [15] [µM]
CCCC[C@]1(CC)CS(=O)(=O)c2cc(CNC(CC(=O)O)CC(=O)O)c(OC)cc2[C@@H](c2ccccc2)N1	95.7	94.1	96.5	91.1	104	105	112	108	97.7	112	96.3	101	98	89.5	100	96.7	101	96.8	104	104	90	97.8	99.7	96.5	105	0	0	0	0	0	> 10	> 10	> 10	> 10	> 10
CS(=O)(=O)c1ccc(Cn2c3c(c4cc(F)cc(F)c42)CCCC3CC(=O)O)cc1 (stereo not given)	98	101	100	99.1	95.4	108	91	97.3	95.6	94	99.7	98.4	95.3	103	100	93.1	97.2	93.5	97.1	97.6	97.6	96.4	96.5	96	97.7	0	0	0	0	0	> 10	> 10	> 10	> 10	> 10
Cc1ccc([N+](=O)[O-])cc1S(=O)(=O)N(C)C	92.8	97.9	95.6	93.1	108	95.7	104	93.1	99.1	102	97.2	92.8	94.8	107	105	103	99.7	103	92.6	99.9	91.7	88.7	94.2	96.1	99.2	0	0	0	0	0	> 10	> 10	> 10	> 10	> 10
Clc1cccc(-c2nnnn2Cc2cccnc2)c1Cl	106	103	104	99.2	102	101	97.5	105	101	103	99.9	105	96.2	98.2	97.2	97	95.9	94.2	99.3	94.9	97.6	104	99.1	98.4	91.1	0	0	0	0	0	> 10	> 10	> 10	> 10	> 10
O=C(CCc1ccncc1)NNC(=O)N1Cc2ccccc2Oc2ccc(Cl)cc21	100	98.4	101	94.9	109	117	106	111	99.9	107	103	96.4	97.3	87.8	95.4	96.4	103	96.8	102	100	88.1	99.1	92.7	95.6	98.4	0	0	0	0	0	> 10	> 10	> 10	> 10	> 10
OC(c1ccccc1)C1CCN(CCc2ccccc2)CC1 (stereo not given)	96.3	94.1	93.5	93.8	106	88.4	110	96.7	105	114	97.3	85	111	108	104	101	96.7	102	98	101	98.4	95.2	102	101	95.4	0	0	0	0	0	> 10	> 10	> 10	> 10	> 10
COc1cc(SC)ccc1C(=O)N1CCC(Cc2ccccc2)CC1 [JX-401]	101	98.6	99.8	97.6	94.8	104	110	99.9	97.7	106	99.4	114	97.5	103	97.3	–	–	–	–	–	95.5	95.9	90.9	99	94.5	0	0	0	–	0	> 10	> 10	> 10	–	> 10
O=C1c2ccccc2C(=O)c2ccccc21 [anthraquinone]	105	106	99.8	104	101	95.2	106	96.2	94.2	92.6	94.9	97.4	95.8	88	98.2	105	99.7	103	99.2	105	–	–	–	–	–	0	0	0	0	–	> 10	> 10	> 10	> 10	–
O=c1cc(-c2ccc(O)cc2)oc2cc(O)cc(O)c12 [apigenin]	101	101	101	95.2	92	92.8	105	97.7	102	94	104	103	101	99.3	94.7	–	–	–	–	–	93.9	94.2	105	94.8	90.4	0	0	0	–	0	> 10	> 10	> 10	–	> 10
CCOc1nc2cccc(C(=O)OCc3oc(=O)oc3C)c2n1Cc1ccc(-c2ccccc2-c2noc(=O)[nH]2)cc1 [azilsartan-medoxomil]	113	107	107	99.4	101	–	–	–	–	–	104	102	96.3	101	93.1	98.7	101	94.7	97.3	92.8	107	86.4	83.3	107	85.1	0	–	0	0	0.1	> 10	–	> 10	> 10	> 10
COc1ccccc1Oc1c(NS(=O)(=O)c2ccc(C(C)(C)C)cc2)nc(-c2ncccn2)nc1OCCO [bosentan]	95.1	100	94.3	93.9	85.3	–	–	–	–	–	102	94.2	99.1	114	102	98	102	98	99.9	91	106	98.4	103	96.6	81.1	0.2	–	0	0	0.9	> 10	–	> 10	> 10	> 10
N#Cc1c(N)nc(SCc2csc(-c3ccc(Cl)cc3)n2)c(C#N)c1-c1ccc(OCCO)cc1 [capadenoson]	93	98.5	95.6	102	102	89	108	95.3	105	107	98	102	104	104	95.6	99.2	95.2	101	100	79.3	102	94.6	98.8	104	74.8	0	0	0	0.6	0.8	> 10	> 10	> 10	> 10	–
N=C(N)NCCC[C@@H](NC(=O)[C@@H]1CCCN1C(=O)[C@@H]1CSSCCC(=O)N[C@@H](Cc2ccc(O)cc2)C(=O)N[C@@H](Cc2ccccc2)C(=O)N[C@@H](CCC(N)=O)C(=O)N[C@@H](CC(N)=O)C(=O)N1)C(=O)NCC(N)=O [desmopressin-acetate]	105	108	106	101	99.4	106	96.2	110	107	106	101	92.7	110	93.4	102	97.5	93.8	96.6	96.3	100	–	–	–	–	–	0	0	0	0	–	> 10	> 10	> 10	> 10	–
CC(C)=CCC[C@](C)(O)[C@H]1CC[C@]2(C)[C@@H]1[C@H](O)C[C@@H]1[C@@]3(C)CC[C@H](O)C(C)(C)[C@@H]3[C@@H](O)C[C@]12C [hemomex-s]	96.1	93.9	96.6	98.8	99.2	–	–	–	–	–	105	109	112	105	93.4	97.4	101	99.8	101	100	113	106	103	111	96.9	0	–	0	0	0	> 10	–	> 10	> 10	> 10
COc1ccc(CCN)cc1OC [homoveratrylamine]	108	106	94.9	97.5	96.4	110	103	98.2	108	115	100	85.6	113	98.2	95.7	94.6	96.1	97.6	97.3	101	89.4	77.6	110	79.4	73	0	0	0	0	2.9	> 10	> 10	> 10	> 10	–
O=c1[nH]c(=O)n([C@H]2C[C@H](O)[C@@H](CO)O2)cc1I [idoxuridine]	99.1	104	97.8	99.8	84.5	101	104	95.8	94	62.5	106	96.6	110	93	96.5	98.4	103	101	106	99.6	101	101	94	105	95.9	0.3	2.8	0	0	0	> 10	–	> 10	> 10	> 10
CNC(C)(C)Cc1ccccc1 [mephentermine]	108	97.3	97	105	104	102	99.6	106	104	91.4	101	97.4	95.5	102	99.8	–	–	–	–	–	97.1	105	104	106	96.8	0	0	0	–	0	> 10	> 10	> 10	–	> 10
Clc1ccc(COC(Cn2ccnc2)c2ccc(Cl)cc2Cl)c(Cl)c1 (stereo not given) [miconazole]	106	106	101	102	97.2	97.6	109	103	96.2	75.5	101	98.8	102	91.6	87.1	95.5	94.9	102	94.2	92.4	96.3	98	96.2	85.9	72.1	0	1.5	0.5	0	2.4	> 10	> 10	> 10	> 10	–
CN(c1nccc(=O)[nH]1)C1CCN(c2nc3ccccc3n2Cc2ccc(F)cc2)CC1 [mizolastine]	97.5	101	98.6	97.8	107	–	–	–	–	–	103	104	99.5	102	108	101	98.5	101	103	102	89.5	99.9	98	100	98.3	0	–	0	0	0	> 10	–	> 10	> 10	> 10
CC1=C(/C=C/C(C)=C/C=C/C(C)=C/C=O)C(C)(C)CCC1 [retinaldehyde]	99.2	95.1	95.2	95.3	99.9	–	–	–	–	–	98.9	108	104	88.8	87.4	104	107	101	99.4	92.9	100	104	89.5	97.8	90.4	0	–	0.6	0	0	> 10	–	> 10	> 10	> 10
Oc1c(I)cc(I)c(O)c1I [riodoxol]	101	99.3	99.6	101	94.6	97.2	91.1	101	93.2	96.9	103	95.1	103	104	98.5	–	–	–	–	–	94.9	93.8	98.1	93.5	104	0	0	0	–	0	> 10	> 10	> 10	–	> 10
CCCN(CCC)CCc1cccc2c1CC(=O)N2 [ropinirole]	100	101	101	99.3	96.3	99.1	100	87.7	103	104	92.9	106	99.7	89.8	103	–	–	–	–	–	97.8	108	100	104	105	0	0	0	–	0	> 10	> 10	> 10	–	> 10
Cc1c(C(=O)Nc2ccc(N3C[C@@H](C)O[C@@H](C)C3)nc2)cccc1-c1ccc(OC(F)(F)F)cc1 [sonidegib]	105	109	102	104	84	104	96.8	99.7	98.9	71.3	109	98.4	92.7	97.9	97.2	99.5	94.1	102	96.5	87.3	102	98.8	95.7	98	81.4	0.2	1.4	0	0.3	0.7	> 10	–	> 10	> 10	> 10
Cn1nnc(-c2ccc(-c3ccc(N4C[C@H](CO)OC4=O)cc3F)cn2)n1 [tedizolid]	94	99.6	98.3	101	92.9	111	95.4	99.5	76.9	55.7	103	95.4	99.6	108	106	101	102	96.7	96.3	94.1	113	106	94.2	93.3	82.2	0	5.1	0	0	0.6	> 10	–	> 10	> 10	> 10
